Consider 103 molecules from PubChem BioAssay AID1949 (Southern Research Institute, 2009).

The IC50 is the midpoint of a concentration-inhibition curve.

The test system of the test is M. tuberculosis H37Rv growth inhibition. Nature of the test: Mycobacterium tuberculosis H37Rv growth inhibition, cell based, confirmatory dose response (AID 1949).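 Also: bacteria grown 7 days with compound before Alamar blue readout.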

Values after ≈ are worked out from the molar mass of the structure shown. Records with an inconclusive call do not appear. Active and inactive are the calls of the source. No rule for the calls is given here.

For `CCOc1ccccc1NC(=O)CSc1nc2ccc(NC(=O)c3ccccc3Cl)cc2s1`, the IC50 is 1.25 µg/mL (≈ 2.51 µM). Then `COCCNCCCCOc1ccc(Cl)cc1C(C)(C)C`, with 4.62 µg/mL (≈ 14.7 µM). The figure for `CCOc1cc(CNCCO)ccc1OCc1ccc(Cl)cc1Cl` is 6.03 µg/mL (≈ 16.3 µM); for `COC(=O)COc1ccc2c(=O)c(Oc3ccccc3OC)c(C)oc2c1` it is 1.39 µg/mL (≈ 3.75 µM). Then `O=c1c2cccc3c2c(nn1CCN1CCCCC1)-c1ccccc1-3`, with 2.84 µg/mL (≈ 8.57 µM). As for `COc1ccc(-c2cc(-c3ccccc3)nc(-n3nc(C)cc3C)n2)cc1`, the IC50 was 4.22 µg/mL (≈ 11.8 µM).

Regarding `O=C(Oc1cccc2cccnc12)c1ccccc1Br`, the IC50 was 1.36 µg/mL (≈ 4.14 µM). The figure for `Cn1c(=O)c([N+](=O)[O-])c(Nc2cccc(C(F)(F)F)c2)c2ccccc21` is 15.4 µg/mL (≈ 42.3 µM); for `Cc1cc(OC(=O)c2ccco2)c2c3c(c(=O)oc2c1)CCCC3` it is 23.4 µg/mL (≈ 72 µM); for `COC(=O)CSc1nnc(NC(=O)c2ccc(Cl)cc2)s1` it is 0.16 µg/mL (≈ 0.465 µM). The figure for `O=c1c2ccccc2[nH]c(=S)n1CCCN1CCN(c2cccc(Cl)c2)CC1` is 2.46 µg/mL (≈ 5.93 µM).

`Cc1c(Cl)ccc2c(=O)c(C(=O)O)c[nH]c12`: the IC50 was 29.6 µg/mL (≈ 125 µM). As for `Nc1ncnc(Sc2ncccn2)c1[N+](=O)[O-]`, the IC50 was > 50 µg/mL (inactive). Turning to `Nc1cc(N)c2cc(-c3ccccc3)oc2c1`, the IC50 is > 50 µg/mL (inactive). Take `CC(=O)c1ccc(S(=O)(=O)c2ccc(C)cc2)c([N+](=O)[O-])c1`: the IC50 was 2.94 µg/mL (≈ 9.21 µM). On to `COc1ccccc1C(=O)Nc1ccc2oc(-c3cccc(Cl)c3)nc2c1`, for which the IC50 is > 50 µg/mL (inactive). The figure for `COc1ccccc1C1=Nc2cccc3cccc(c23)N1` is 0.24 µg/mL (≈ 0.875 µM). The figure for `CCc1ccccc1N1C(=O)c2cccc3c([N+](=O)[O-])ccc(c23)C1=O` is 19 µg/mL (≈ 54.9 µM). Then `Cc1ccc(NC(=O)NC23CC4(C)CC(C)(CC(C)(C4)C2)C3)cc1`, with > 50 µg/mL (inactive). Regarding `O=[N+]([O-])c1ccc(O)c(-c2nc3ccccc3s2)c1`, the IC50 was > 50 µg/mL (inactive). The figure for `Cc1ccc2cccc(OCC(=O)c3ccc(C)c(C)c3)c2n1` is 11.3 µg/mL (≈ 37.2 µM); for `O=C(Nc1ccccc1Cl)c1cc([N+](=O)[O-])ccc1O` it is 7.53 µg/mL (≈ 25.7 µM); for `COc1c2ccoc2nc2c(OC)cccc12` it is 1.76 µg/mL (≈ 7.68 µM). For `Cc1nc2cc(NCc3cccc([N+](=O)[O-])c3)ccc2n1Cc1ccccc1`, the IC50 is 5.75 µg/mL (≈ 15.4 µM).

In the case of `Cc1ccc(-c2cnc(C)c(-c3ccccc3)c2)nc1-c1ccccc1`, the IC50 was > 50 µg/mL (inactive).

As to `O=C(Cc1ccc(F)cc1)Nc1ccc(Cl)c(C(F)(F)F)c1`, the IC50 is 1.2 µg/mL (≈ 3.62 µM). The figure for `FC(F)(F)c1cccc(NC(=S)Nc2cccc(Cl)c2)c1` is 13.5 µg/mL (≈ 40.9 µM); for `CCOC(=O)c1ccccc1OC(=O)c1c(F)c(F)c(F)c(F)c1F` it is 9.77 µg/mL (≈ 27.1 µM). As to `COCc1nc2ccccc2n1CCCOc1ccc(C)cc1`, the IC50 was 8.25 µg/mL (≈ 26.6 µM). Then `O=C(Nc1ccc2c(c1)OCCO2)NC12CC3CC(CC(C3)C1)C2`, with 4.52 µg/mL (≈ 13.8 µM); and `Cc1ccc(C(C)C)c(OCCCCn2ccnc2)c1`, with 2.22 µg/mL (≈ 8.15 µM). For the molecule `COc1ccc(-c2c(C)[nH]n3c(=O)c(Cc4ccccc4)c(C)nc23)cc1`, the IC50 is 1.28 µg/mL (≈ 3.56 µM). Regarding `CCOC(=O)c1c(-c2ccccc2)c2cc(OC)ccc2n1CCCN(C)C`, the IC50 is 4.68 µg/mL (≈ 12.3 µM). The figure for `COc1ccccc1NC(=O)CSc1nc2cc3ccccc3cc2[nH]1` is 3.08 µg/mL (≈ 8.47 µM); for `CCCCNCCCCOc1ccc2ccccc2c1Br` it is 1.63 µg/mL (≈ 4.65 µM); for `COc1ccc(-c2nc(-c3ccc(O)cc3O)cs2)cc1OC` it is 0.17 µg/mL (≈ 0.516 µM). Then `c1ccc2cc3nc4c(ccc5ccccc54)nc3cc2c1`, with less than 0.1 µg/mL; and `CCCN1C(=O)c2cccc3cc([N+](=O)[O-])cc(c23)C1=O`, with less than 0.1 µg/mL. The figure for `CCCCn1c(=N)n(CC(O)COc2cccc(C)c2)c2ccccc21` (stereo not drawn) is 6.05 µg/mL (≈ 17.1 µM); for `Cc1cc(C)cc(OCC(=O)Nc2ccc3oc(-c4ccc(F)cc4)nc3c2)c1` it is > 50 µg/mL (inactive); for `COc1cccc2c1OC(c1ccccc1)C([N+](=O)[O-])=C2` (stereo not drawn) it is 0.7 µg/mL (≈ 2.47 µM). Regarding `Oc1ccc(CSc2ccccc2)c2cccnc12`, the IC50 was 0.6 µg/mL (≈ 2.24 µM). In the case of `Cc1ccc(SC(C)C(=O)Nc2ccc(Cl)c(Cl)c2)cc1` (stereo not drawn), the IC50 is 12.3 µg/mL (≈ 36.1 µM). Then `COc1ccc(Cl)cc1/C=C/[N+](=O)[O-]`, with 5.64 µg/mL (≈ 26.4 µM); and `CCOC(=O)c1c(CSc2ccccc2)n(-c2ccccc2)c2ccc(O)c(CN(C)C)c12`, with 1.4 µg/mL (≈ 3.04 µM); and `CC(C)OC(=O)COc1ccc2c(=O)c(Oc3ccccc3Br)coc2c1`, with 13.9 µg/mL (≈ 32.1 µM).

`O=C(Nc1ccc([N+](=O)[O-])cc1)N1CCN(c2cccc(C(F)(F)F)c2)CC1`: the IC50 is 1.56 µg/mL (≈ 3.96 µM). The figure for `COC(=O)c1ccc(OCC(=O)Nc2ccccc2F)cc1` is 0.55 µg/mL (≈ 1.81 µM); for `Cc1cccc(OC(C)C(=O)Nc2ccc([N+](=O)[O-])cc2)c1C` (stereo not drawn) it is 3.13 µg/mL (≈ 9.96 µM); for `O=c1c2ccccc2nc(/C=C/c2ccc(Br)cc2)n1-c1ccc(O)cc1` it is > 50 µg/mL (inactive).

As to `CCOC(=O)c1c(-c2ccccc2)oc2ccc(OC(=O)c3cccs3)cc12`, the IC50 was > 50 µg/mL (inactive). Regarding `CC(C)(C)NC(=O)c1cc2cc([N+](=O)[O-])ccc2oc1=O`, the IC50 is 1.48 µg/mL (≈ 5.1 µM). Then `Cc1cc(O)ccc1N1C(=O)c2cccc3c([N+](=O)[O-])ccc(c23)C1=O`, with 21.3 µg/mL (≈ 61.1 µM). Then `Brc1ccc2ncnc(Nc3ccc(N4CCCC4)cc3)c2c1`, with less than 0.1 µg/mL; and `COc1ccccc1OCCCCN1CCN(C(c2ccccc2)c2ccccc2)CC1`, with 8.02 µg/mL (≈ 18.6 µM). On to `COc1ccc(Cc2nn3c(-c4ccccc4)nnc3s2)cc1`, for which the IC50 was 0.63 µg/mL (≈ 1.95 µM). `CCOC(=O)c1ccc(NC(=S)Nc2cc(Cl)c(Cl)cc2Cl)cc1`: the IC50 is 2.72 µg/mL (≈ 6.74 µM). In the case of `CCN1CCN(c2ccc(NC(=O)CC34CC5CC(CC(C5)C3)C4)cc2Cl)CC1`, the IC50 was 49.4 µg/mL (≈ 119 µM).

`O=S1(=O)C=C(Sc2nnc(-c3ccccc3)o2)c2ccccc21`: the IC50 was 0.31 µg/mL (≈ 0.905 µM).

On to `Clc1ccc(COc2ccc3ccccc3c2CNCc2cccnc2)c(Cl)c1`, for which the IC50 is 2.7 µg/mL (≈ 6.38 µM). `COc1cccc(NC(=O)Nc2ccc(C(F)(F)F)cc2)c1`: the IC50 was 5.23 µg/mL (≈ 16.9 µM).

`COc1ccccc1NC(=O)CSc1nc(-c2ccccc2)cc(C(F)(F)F)c1C#N`: the IC50 was 1.63 µg/mL (≈ 3.68 µM).

With `Cc1ccccc1C(=O)N1CCN(c2ccc(NC(=S)NC(=O)c3cccc(Cl)c3)cc2)CC1`, the IC50 was > 50 µg/mL (inactive). The figure for `CCOC(=O)c1ccc(NC(=S)NC(=O)CCc2ccccc2)cc1` is 1.76 µg/mL (≈ 4.94 µM); for `Fc1ccccc1C1NC(=S)NC2=C1CCc1ccccc12` (stereo not drawn) it is 9.36 µg/mL (≈ 30.2 µM). The figure for `Oc1ccc(CNc2ccccc2O)cc1` is 1.02 µg/mL (≈ 4.74 µM).

As for `CCn1nnc(NC(=O)c2sc3ccccc3c2Cl)n1`, the IC50 is 3.02 µg/mL (≈ 9.81 µM). Then `CC(C)C1C(c2ccccc2)NC(c2ccccc2)CC1(O)c1ccc(F)cc1` (stereo not drawn), with 10.1 µg/mL (≈ 25.9 µM). For the molecule `CCCCN1CCC(O)(c2ccccc2)C(C(=O)c2ccccc2)C1` (stereo not drawn), the IC50 is 11.4 µg/mL (≈ 33.9 µM). Then `COc1ccccc1OC(=O)c1sc2ccccc2c1Cl`, with 1.37 µg/mL (≈ 4.3 µM); and `O=C(Oc1cccc2cccnc12)c1ccc(Cl)c(S(=O)(=O)N2CCOCC2)c1`, with 1.48 µg/mL (≈ 3.42 µM); and `O=S(=O)(Nc1cccc2cccnc12)c1ccc(Br)cc1`, with 0.4 µg/mL (≈ 1.1 µM). As to `CCOC(=O)COc1ccc(S(=O)(=O)Nc2cccc(Cl)c2C)cc1`, the IC50 was 3.03 µg/mL (≈ 7.89 µM). Then `O=c1cc(-c2ccccc2)[nH]n1-c1ccc([N+](=O)[O-])cc1`, with 10.8 µg/mL (≈ 38.5 µM); and `C#CCSc1nnc(-c2ccc(Br)cc2)o1`, with 0.94 µg/mL (≈ 3.18 µM).

For the molecule `O=C(CCN1CCCCCC1)c1ccc(Cl)cc1`, the IC50 was 22.7 µg/mL (≈ 85.5 µM). Then `COc1cccc(-n2nnnc2S(=O)(=O)Cc2ccccc2)c1`, with 0.38 µg/mL (≈ 1.15 µM). Take `COc1ccc2cc(-c3nn(-c4ccccc4)cc3CO)ccc2c1`: the IC50 was > 50 µg/mL (inactive). `O=C(COc1ccc(-c2ccccc2)cc1)OC1CCCCC1`: the IC50 is 0.65 µg/mL (≈ 2.09 µM).

As for `O=C(CSc1n[nH]c(-c2ccc(Cl)cc2)n1)Nc1ccc(F)c(Cl)c1`, the IC50 is 39 µg/mL (≈ 98.2 µM).

As for `COc1cc(NC(=S)N2CCN(C)CC2)cc(OC)c1`, the IC50 was > 50 µg/mL (inactive). As to `COc1cc(CNCc2ccccc2)c(Br)cc1OC1CCCC1`, the IC50 is 10.5 µg/mL (≈ 27 µM). The figure for `C=CCNCCCOc1ccc(Cl)cc1C(C)(C)C` is 6.96 µg/mL (≈ 24.7 µM); for `Cc1ccc2nc(NCc3ccccc3)[nH]c2c1` it is 1.49 µg/mL (≈ 6.28 µM); for `COc1cc(C(=O)Oc2ccc(Cl)c3cccnc23)cc(OC)c1OC` it is 11.3 µg/mL (≈ 30.2 µM). For the molecule `COc1ccc2nc(C)cc(Nc3ccccc3O)c2c1`, the IC50 was 8.28 µg/mL (≈ 29.5 µM).

For the molecule `CCOC(=O)Cn1nnc(-c2ccc(OCc3ccccc3C)cc2)n1`, the IC50 is less than 0.1 µg/mL. On to `Cc1ccc(NC(=S)Nc2ccc(Cl)c(Cl)c2)c(OC(F)F)c1`, for which the IC50 is 2.92 µg/mL (≈ 7.74 µM). On to `Cc1nc(N2CCN(Cc3ccc4c(c3)OCO4)CC2)nc2c1C(=O)CC(c1ccco1)C2` (stereo not drawn), for which the IC50 was 5.06 µg/mL (≈ 11.3 µM). Turning to `Oc1cccc(Nc2nc(NCc3ccccc3)c3ccccc3n2)c1`, the IC50 is 0.98 µg/mL (≈ 2.86 µM).

`CCOC(=O)c1c(NC(=O)CNC(C)CC)sc2c1CCCC2` (stereo not drawn): the IC50 was 17.4 µg/mL (≈ 51.4 µM). With `COc1ccc(NC(=O)c2ccc(C#CC(C)(C)O)s2)cc1`, the IC50 is 0.31 µg/mL (≈ 0.983 µM). Regarding `COc1ccc(N2CCN(CC(O)COc3ccc(C)cc3C(C)(C)C)CC2)cc1` (stereo not drawn), the IC50 is 4.09 µg/mL (≈ 9.91 µM). As for `O=S(=O)(Nc1cc(Br)c(O)c2ccccc12)c1ccc(F)cc1`, the IC50 is 3.06 µg/mL (≈ 7.72 µM).

Take `N#Cc1ccc(Sc2nc3ccccc3o2)c([N+](=O)[O-])c1`: the IC50 is > 50 µg/mL (inactive). As to `Cc1ccc(Cl)cc1N1CCN(CC(O)COc2ccc(C(=O)c3ccccc3)cc2)CC1` (stereo not drawn), the IC50 is 2.94 µg/mL (≈ 6.32 µM). As for `CCOC(=O)C1CCN(C2=NC(=O)/C(=C\c3ccc(Cl)cc3Cl)S2)CC1`, the IC50 is 0.41 µg/mL (≈ 0.992 µM).

Consider `CNCc1ccc(OCc2ccc(Cl)cc2Cl)cc1`, for which the IC50 was 4.85 µg/mL (≈ 16.4 µM). Then `Cc1ccc2c(C)nc(Nc3nc(CSc4nc5ccccc5s4)cc(=O)[nH]3)nc2c1`, with 0.38 µg/mL (≈ 0.851 µM); and `N#Cc1cccc(NC(=O)Nc2cccc(Cl)c2)c1`, with 6.26 µg/mL (≈ 23 µM); and `CCCCNCCOc1ccc(Cl)cc1C(C)(C)C`, with 12.8 µg/mL (≈ 45 µM). As to `O=C(Oc1c(Cl)cc(Cl)c2cccnc12)c1cccc([N+](=O)[O-])c1`, the IC50 was 6.13 µg/mL (≈ 16.9 µM). Then `Cc1ccccc1Nc1nc(-c2ccccn2)cs1`, with less than 0.1 µg/mL.
